The values that follow come from patent US7415358B2, “Molecular toxicology modeling” (Ocimum Biosolutions, Inc., priority 2001, dated 2008).

For series [1] the following is noted: in vivo; cited from earlier work.
Series [2] has as its system angiotensin converting enzyme (ACE). Conditions: rats, 20, 25, and 30 days post-treatment; cited from earlier work.
The conditions of series [3]: rat, in vivo, 65 mg/kg; cited from earlier work.
The subject of another series is renal cortex. Conditions: cited from earlier work.
The test system of a further series is glutathione reductase. Conditions: cited from earlier work.
For series [4] the following is noted: CMV patients; cited from earlier work.
The conditions of series [5]: rats, cited from earlier work.
For series [6] the following is noted: rats, began on day 3; cited from earlier work.
The conditions of series [7]: rabbit, in vivo; cited from earlier work.
Series [8] can be described thus: Clinical chemistry of the dosed rats. It counts as in vivo. Conditions: rats given the high dosage.
The subject of a further series is rat hepatocytes. Conditions: cited from earlier work.
The conditions of series [9]: rats fed hydralazine, compared to control groups; cited from earlier work.
The conditions of series [10]: rats and mice, varying doses; cited from earlier work.
Series [11] relates to glomerular epithelial cell. Conditions: rat, in vivo; cited from earlier work.
For series [12] the following is noted: rat, in vivo; cited from earlier work.
For series [13] the following is noted: four HIV-positive patients treated for toxoplasmosis; cited from earlier work.
For series [14] the following is noted: male Wistar rats, daily doses within human therapeutic range; cited from earlier work.
For series [15] the following is noted: treatment 2 to 25 years; cited from earlier work.

Where two headings read alike, the source gives them in different places.

Turning to “9-[(2-hydroxyethyl) methyl] guanine [ACYCLOVIR]”, in series [1], the excretion result is given as “most of it is excreted in the urine largely unchanged”.

Regarding `COc1cccc2c1C(=O)c1c(O)c3c(c(O)c1C2=O)C[C@@](O)(C(=O)CO)C[C@@H]3O[C@H]1C[C@H](N)[C@H](O)[C@H](C)O1` [ADR], in series [2], the “serum ACE levels” value is given as “serum ACE levels were significantly elevated”.

As to `N.N.O=C([O-])C1(C(=O)[O-])CCC1.[Pt+2]` [CARBOPLATIN], the CGT excretion entry in series [3] was “increased approximately two-fold”.

As to `O=C(Cc1cccs1)N[C@@H]1C(=O)N2C(C(=O)[O-])=C(C[n+]3ccccc3)CS[C@H]12` [CEPHALORIDINE], in the series on renal cortex, the “reduced glutathione (GSH) in the renal cortex” value is “depleted reduced glutathione (GSH)”. The glutathione reductase activity entry in the series on glutathione reductase is on record as “inhibited glutathione reductase”.

As to `Nc1ccn(C[C@@H](CO)OCP(=O)(O)O)c(=O)n1` [CIDOFOVIR], in series [4], the “patients with dose-dependent asymptomatic proteinuria” value is “Approximately 40%” and the “patients with elevated serum creatinine levels” value is listed as 25%.

In the case of `N.N.[Cl][Pt][Cl]` [CISPLATIN, Pt(NH3)2(Cl)2], the BUN result in [5] (day 2, high-dose groups (10-15 mg/kg)) is “six or seven-fold elevation in BUN”; in series [5] (day 4, 5 mg/kg group), “BUN elevation was noted”. Besides, the serum creatinine levels result in series [6] is reported as “elevations in serum creatinine levels”.

As for `CC1=C2C(=CO[C@H](C)[C@H]2C)C(O)=C(C(=O)O)C1=O` [CITRININ], the “creatinine clearance, blood urea nitrogen, serum creatinine (renal failure)” value in series [7] was “decreased creatinine clearance and increased blood urea nitrogen and serum-creatinine levels”.

For `O=C(O)c1cc(-c2ccc(F)cc2F)ccc1O` [DIFLUNISAL], the concentrations of creatinine entry in series [8] was “increased concentrations of creatinine”. The LDH leakage result in the series on rat hepatocytes (500 μM, compared to control) is recorded as “increase LDH leakage”. Moreover, in the series on rat hepatocytes, the “intracellular ATP concentrations” value is “decreased intracellular ATP concentrations”.

With `NNc1nncc2ccccc12` [HYDRALAZINE], in [9], the kidney copper concentrations entry is “kidney copper concentrations were increased”.

Take `NCCC(O)(P(=O)(O)O)P(=O)(O)O` [PAMIDRONATE]: in series [10], the “body weight and creatinine clearance” value is “significant weight loss and a decrease in creatinine clearance”.

As for `CN(C)c1ncnc2c1ncn2[C@@H]1O[C@H](CO)[C@@H](N)[C@H]1O` [PAN, puromycin aminonucleoside], the “glomerular epithelial cell apoptosis” value in series [11] was “induced glomerular epithelial cell apoptosis”. The proteinuria entry in series [12] is listed as “led to proteinuria”.

In the case of `Nc1ccc(S(=O)(=O)Nc2ncccn2)cc1` [SULFADIAZINE], the “clinical renal adverse findings” value in series [13] was “developed oliguria, abdominal pain, renal failure”.

For the compound LITHIUMCHLORIDE, the polyuria entry in series [14] was “marked polyuria within three weeks”. Further, in series [15], the “patients with nephrogenic diabetes insipidus (NDI)” value is about 90% and the “patients with nephrotic proteinuria” value is “Approximately one fourth”.
